# Measurements published in publication PMC5698418 (Nature Communications, 2017).
# Positions count from the first letter of the chain named. Names and notes keep the numbering of the source.
# B1: K24Q: acetyl-mimic/unmodifiable mutant Arc-Myc-FLAG, lysine 24 to glutamine (protein, UniProt Q9WV31 1-396, looked up, variant K24Q)
# Activity-regulated …: MELDHMTTGGLHAYPAPRGGPAAQPNVILQIGKCRAEMLEHVRRTHRHLLTEVSKQVERELKGLHRSVGKLENNLDGYVPTGDSQRWKKSIKACLCRCQETIANLERWVKREMHVWREVFYRLERWADRLESMGGKYPVGSEPARHTVSVGVGGPEPYCQEADGYDYTVSPYAITPPPAAGELPEQESVEAQQYQSWGPGEDGQPSPGVDTQIFEDPREFLSHLEEYLRQVGGSEEYWLSQIQNHMNGPAKKWWEFKQGSVKNWVEFKKEFLQYSEGTLSREAIQRELELPQKQGEPLDQFLWRKRDLYQTLYVDAEEEEIIQYVVGTLQPKLKRFLRHPLPKTLEQLIQRGMEVQDGLEQAAEPSGTPLPTEDETEALTPALTSESVASDRTQPE
# modifications: Myc-FLAG tag
# notes: acetyl-mimic/unmodifiable mutant Arc-Myc-FLAG, lysine 24 to glutamine
# B2: K70Q: acetyl-mimic/unmodifiable mutant Arc-Myc-FLAG, lysine 70 to glutamine (protein, UniProt Q9WV31 1-396, looked up, variant K70Q)
# Activity-regulated …: B1 Activity-regulated … with Q24K, K70Q
# modifications: Myc-FLAG tag
# notes: acetyl-mimic/unmodifiable mutant Arc-Myc-FLAG, lysine 70 to glutamine
# Columns and labels:
# [1] = test system: acetyl-H3K9; assay: Acetyl-H3K9 immunofluorescence in neuronal nuclei (multiplexed in screen); type: cell-based, mouse; details: screen, 16.7 µM
# Method: To increase the throughput of our pharmacological screening for modulators of Arc, the above mentioned assay was adapted to cultures of mouse primary cortical neurons in 96-well plates.
# Screening of compounds in the chemogenomic library was carried out using DIV13 primary forebrain cortical neurons cultured on poly-L-lysine/laminin-coated 96-well plates (Ibidi USA, Madison, WI). Cells were seeded at a density of 30,000 cells per well and treated with the compound library and BDNF according to the experimental design presented in Fig. 3a. After experimental treatment, cells were processed for Arc and acetyl-H3K9 immunocytochemistry according to the protocol described above. Both antigens (Arc and acetyl-H3K9) were imaged using an IN Cell Analyzer 6000 imaging system and a ×40 objective. […] High-throughput quantification of nuclear Arc immunofluorescence signal was performed in a similar fashion than the low-throughput procedure described above but with the exception that acetyl-H3K9 was used as a nuclear mask to guide the automated quantification of nuclear Arc immunofluorescence signal.
# [2] = test system: Arc protein; assay: Arc protein half-life after cycloheximide block in primary cortical neurons; type: cell-based, mouse; details: BDNF 4 h, then CHX plus oxamflatin; vehicle baseline ~47 min
# Method: Each compound was tested at a concentration of 16.7 µM and in combination with BDNF or alone. Arc mRNA level induced by just BDNF was included in each experiment as a reference. Bars represent mean fold-change (f.c.) normalized to Arc expression measured in untreated cultures and each red point represents fold-change for an individual biological replicate (n = 4). d Primary cortical neurons were treated with BDNF for 4 h to induce Arc expression at which point protein synthesis was blocked by direct addition to culture media of cycloheximide (CHX, 50 µg ml^−1) in presence of vehicle or oxamflatin (16.7 µM). […] It is left out because the vehicle is a control and not a substance.
# Specifically, we stimulated the cells with BDNF for 4 h to promote accumulation of Arc protein and then added CHX to block all de novo protein translation. Importantly, cultures treated this way were divided in two groups—one to which oxamflatin was added at the same time as CHX and another that was treated with the vehicle only (baseline measure). […] This experiment provided clear evidence that the impact of oxamflatin on Arc protein abundance is, at least in part, the result of a decrease in the rate of Arc protein degradation; however, a mechanistic explanation of how this KDAC inhibitor is modulating the turnover of Arc protein remained elusive at this point.
# [3] = test system: Arc puncta in dendrites of primary cortical neurons; assay: Arc puncta along Map2-labeled dendrites (immunocytochemistry); type: cell-based, mouse; details: 16.7 µM with BDNF, vs untreated and BDNF alone; for BDNF: BDNF alone vs untreated
# Source text: Chemical structure of each compound is presented on top. b Graphs show mean (n = 5) Arc/β-actin ratio (±SEM) for cells treated as in a. […] Tukey’s HSD post hoc test, *p < 0.05; **p < 0.01, ***p < 0.005; ****p < 0.0001. […] Representative captures of DIV14 mouse primary cortical neurons from each experimental condition co-immunostained for Arc (red fluorophore) and Map2 (green fluorophore). White arrowheads show examples of discrete Arc puncta. […] Tukey’s HSD post hoc test, *p < 0.05; ***p < 0.005; ****p < 0.0001
# Indirect immunofluorescence detection of antigens was carried out using cortical neurons cultured on poly-L-lysine/laminin-coated coverslips in 24-well plates at a density of 0.1 × 10^7 per well. After experimental treatment, cells were washed twice with PBS and fixed for 30 min at room temperature with 4% paraformaldehyde in PBS. After fixation, cells were washed twice with PBS, permeabilized with PBST (PBS + 0.25% Triton X-100) for 20 min, blocked in blocking solution (PBS + 5% normal goat serum) for another 30 min, and finally incubated overnight at 4 °C with the first primary antibody in blocking solution. The next day, coverslips were extensively washed with PBS and incubated for 2 h at room temperature in the appropriate fluorophore-conjugated secondary antibody solution (Alexa 488- or Alexa 594-conjugated secondary antibody (Molecular Probes, Invitrogen) in blocking solution). After washing with PBS, the coverslips were incubated again overnight in primary antibody solution for the second antigen, and the procedure for conjugation of the fluorophore-conjugated secondary antibody was repeated as above. Finally, cell nuclei were counterstained with 4′,6-diamidino-2-phenylindole (DAPI), and coverslips were mounted on glass slides with ProLong Antifade reagent (Invitrogen).
# (§1) Quantification of surface GluA1 puncta was performed according to the following strategy. First, overlapping digital images of GluA1 and Map2 immunostainings were collected using a Zeiss AxioObserver Z1 inverted microscope and ×63 oil immersion objective. Second, thresholding and segmentation based on the Map2 images was used to remove GluA1 signals outside of dendritic processes. Importantly, the same background/foreground cutoff threshold was used for images of all experimental conditions. Third, the length of dendrites for each image set was measured and recorded. Finally, distinct GluA1 foreground objects along dendrites >5 pixels were counted using the particle analysis tool in ImageJ and presented as the average number of GluA1 puncta per µm of dendrite length for each experimental condition.
# [4] = test system: surface GluA1; assay: Surface AMPAR (GluA1) imaging along dendrites; type: cell-based, mouse; details: 16.7 µM, 6 h with BDNF, vs untreated and BDNF alone; for BDNF: BDNF alone vs baseline
# Method: Our procedure to label surface AMPARs containing the GluA1 subunit was adapted from two reports[14],[61]. Precisely, DIV14 primary cortical neurons cultured on coverslips were rinsed once with room temperature PBS^MC (PBS containing 0.5 mM CaCl2, 1 mM MgCl2, and 4% sucrose). Live cells were then incubated for 30 min at room temperature with GluA1 primary antibody solution (PBS^MC with antibody against the extracellular N-terminus of GluA1 (EMD Millipore Corp, clone RH95, 5.0 µg ml^−1)). Next, cells were rinsed twice with ice-cold PBS^MC followed by fixation with 4% paraformaldehyde + 4% sucrose solution for 15 min at room temperature. After fixation, neurons were washed with regular PBS and then incubated overnight with Map2 primary antibody solution (PBS with 0.125% Triton X-100, 5% normal goat serum, and anti-Map2 antibody) to label dendrites. Next day, coverslips were washed with PBS, incubated with appropriate secondary antibodies for 1 h at room temperature, and finally mounted on glass slides with ProLong Antifade reagent (Invitrogen).
# as §1
# [5] = test system: BDNF-induced nuclear Arc expression in primary cortical neurons; assay: Chemogenomic screen: high-content image-based assay of BDNF-induced nuclear Arc expression (96-well); type: cell-based, mouse
# Method in brief: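 DIV13 mouse primary cortical neurons (30,000 cells/well) are treated with compound at 16.7 µM and BDNF, in three biological replicates. Arc and acetyl-H3K9 are immunostained and imaged at ×40, and nuclear Arc signal is quantified automatically using acetyl-H3K9 as the nuclear mask.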
# [6] = test system: Arc protein; assay: Western blot of total Arc protein in primary cortical neurons; type: cell-based, mouse
# Method: Forebrains of E16.5 C57BL/6 mouse embryos were dissected and then dissociated in trypsin solution for 15 min followed by three washes with phosphate-buffered saline (PBS). Single-cell suspension was achieved by gentle pipet trituration. Neurons were seeded in poly-L-lysine/laminin-coated six-well plates at a density of 2 × 10^6 per well and maintained in neurobasal medium containing B27 supplement (2%, Invitrogen, Grand Island, NY), penicillin (50 units ml^−1, Invitrogen), streptomycin (50 µg ml^−1, Invitrogen), and glutamine (1 mM, Sigma). For experiments involving BDNF (EMD Millipore Corps, Billerica, MA), the stock solution (2 ng µl^−1 in water) was added directly to the culture medium at a final concentration of 100 ng ml^−1 for the indicated period of time.
# The following procedure was used to quantify western blots. First, equal quantity of protein lysate was analyzed by SDS–PAGE for each biological replicate. Second, the exposure time of the film to the ECL chemiluminescence was the same for each biological replicate. Third, all the exposed films were scanned on a Brother MFC-J485DW scanner in grayscale at a resolution of 300 dpi. Fourth, the look-up table (LUT) of the scanned tiff images was inverted and the intensity of each band was individually measured using the selection tool and the histogram function in Adobe Photoshop CC 2015 software. […]
# [7] = test system: eIF4E phosphorylation; assay: Western blot of phospho-eIF4E in primary cortical neurons; type: cell-based, mouse; details: CGP 57380 5 µM co-treated 6 h with BDNF
# Method: For western blot analyses, cells were collected by scraping in ice-cold radioimmunoprecipitation assay (RIPA) buffer (50 mM Tris-HCl (pH 8.0), 300 mM NaCl, 0.5% Igepal-630, 0.5% deoxycholic acid, 0.1% SDS, 1 mM EDTA) supplemented with a cocktail of protease inhibitors (Complete Protease Inhibitor without EDTA, Roche Applied Science, Indianapolis, IN) and phosphatase inhibitors (phosphatase inhibitor cocktail A, Santa Cruz Biotechnology). One volume of 2× Laemmli buffer (100 mM Tris-HCl (pH 6.8), 4% SDS, 0.15% bromophenol blue, 20% glycerol, 200 mM β-mercaptoethanol) was added and the extracts were boiled for 5 min. Samples were adjusted to an equal concentration after protein concentrations were determined using the BCA assay (Pierce, Thermo Fisher Scientific). Lysates were separated using SDS–PAGE and transferred to a nitrocellulose membrane. After transfer, the membrane was blocked in TBST (Tris-buffered saline + 0.1% Tween 20) supplemented with 5% nonfat powdered milk and probed with the indicated primary antibody at 4 °C overnight. After washing with TBST, the membrane was incubated with the appropriate secondary antibody and visualized using enhanced chemiluminescence (ECL) reagents according to the manufacturer’s guidelines (Pierce, Thermo Fisher Scientific). Uncropped scans with molecular weight reference are shown in Supplementary Figs. 10–20.
# [8] = test system: Neuro2a cells; details: for Fold-change to WT: protein half-life in Neuro2a
# Source text: Next, we aimed to determine whether the K24, K33, K55, and K70 residues participate in Arc protein turnover. […] We also included K70 in this experiment because of its position in the coiled-coil and nuclear retention domains of Arc (Fig. 5e) as well as its relative proximity to K55. For this test, we used site-directed mutagenesis to generate plasmids that would allow overexpression of an acetyl-mimic/unmodifiable mutant Arc-Myc-FLAG protein (lysine (K) to glutamine (Q) mutant) for each of these four sites. After transfecting sets of Neuro2a cells with these different constructs, we inhibited translation with CHX and monitored overexpressed protein levels for up to 6 h after.
# Lysates were collected at the indicated time points and Arc-Myc-FLAG protein level analyzed in every sample by western blotting with an anti-FLAG antibody. Representative western blots are presented on top and quantification of data normalized to corresponding β-actin and presented as percentage of Arc-Myc-FLAG level (±SEM) at the initial time point after CHX application (t = 0). Curve represents exponential decay fit. b Estimate of protein half-life Arc for WT Arc-Myc-FLAG and each acetyl-mimic mutant is presented in table. c WT and acetyl-mutant Arc-Myc-FLAG polyubiquitination was determined in lysates from overexpressing Neuro2a cells. Lysates were immunoprecipitated with anti-FLAG and western blotted with anti-Ub or anti-Arc as indicated.
# Neuro2A cells were cultured in DMEM (supplemented with 10% fetal bovine serum (Gemini-Bio-Products, West Sacramento, CA), penicillin (50 units ml^−1), and streptomycin (50 µg ml^−1)) and transfected overnight using Lipofectamine 2000 (Invitrogen) according to the manufacturer’s protocol. The Neuro2A cell line was generously shared by Dr. Grace Gill.
# The pCMV6-Arc-Myc-DDK (FLAG) plasmid (MR206218) was purchased from OriGene Biotechnologies (Rockville, MD). The Arc-Myc-FLAG K24Q, K24R, K33Q, K55Q, K70Q, and K70R plasmids were generated with the help of the Q5 Site-Directed Mutagenesis Kit from New England BioLabs (Ipswich, MA) using WT pCMV6-Arc-Myc-FLAG as template. All constructs were verified by DNA sequencing.
# [9] = test system: Neuro2a cells; assay: Polyubiquitination of WT and mutant Arc-Myc-FLAG (IP/western) in Neuro2a cells; type: cell-based, mouse; details: MG132 10 µM for 20 min
# Source text: To assess polyubiquitination of Arc in DIV13 primary cortical neurons, Arc was immunopurified from total lysates using an agarose-conjugated anti-Arc monoclonal antibody (Santa Cruz Biotechnology, clone C-7). Overexpressed WT and mutant Arc-Myc-FLAG in Neuro2a cells were immunopurified from total lysates with anti-FLAG M2 antibody conjugated to magnetic beads (Sigma-Aldrich, M8823). Immunopurified materials were separated using SDS–PAGE and electrophoretically transferred to a nitrocellulose membrane. To enhance the immunodetection of ubiquitin conjugated to Arc, the nitrocellulose membrane was placed between two layers of Whatman filter paper, submerged in distilled water, and autoclaved for 30 min. After autoclaving, the membrane was blocked in blocking solution (TBST supplemented with 5% milk) for 30 min and incubated overnight with an antibody recognizing ubiquitin (Santa Cruz Biotechnology, clone P4D1, 1:200) in blocking solution. Subsequent steps were carried out according to the western blot procedure described above.
molecule,measurement,setting,value
oxamflatin,impact on acetyl-H3K9 immunofluorescence (Z-score),[1],strong impact
same,Arc protein half-life (regression analysis),[2],~ 112 min
same,number of Arc puncta in dendritic projections,[3],significantly greater number of Arc puncta
same,surface GluA1 puncta per dendrite µm,[4],significant decrease in surface GluA1 levels
same,Percentage of cell with nuclear Arc immunostaining above 2σ threshold,[5],50.0%
same,rank among potentiators of BDNF-induced nuclear Arc expression in screen,"[5]; 16.7 µM, three biological replicates",second
same,Fold-change — Normalized to DMSO control (BDNF),"[5]; nuclear Arc-positive cells relative to DMSO + BDNF control, negative values = decrease",2.6 fold
same,"total Arc protein vs BDNF plus vehicle control (western blot, Arc/β-actin)",[6]; BDNF 6 h supplemented with compound,significantly more Arc protein
Nc1ncnc2n[nH]c(Nc3ccc(F)cc3)c12 [CGP 57380],effect on eIF4E phosphorylation,[7],impacting eukaryotic translation initiation factor 4E (eIF4E) phosphorylation
same,effect on BDNF-induced Arc expression (western blot),[6]; CGP 57380 5 µM co-treated 6 h with BDNF,did not prevent Arc expression
B1,Estimated t½,[8],6.66 h
same,Fold-change to WT,[8],2.40
same,polyubiquitination of Arc-Myc-FLAG mutant,[9],noticeable decrease in polyubiquitination
B2,Estimated t½,[8],6.15 h
same,Fold-change to WT,[8],2.22
same,polyubiquitination of Arc-Myc-FLAG mutant,[9],noticeable decrease in polyubiquitination
